Test results reported in PMC4890880 (ACS infectious diseases, 2016).
Like-named read-outs stand apart in the source and are kept apart here.

Key:
HepG2-A16-CD81EGFP cells [1] = test: cells; details: Homo sapiens; for IC50: HepG2, read-out: Tox IC50; for inhibition at 50 µM: HepG2, read-out: Tox max inhibition (%) @ 50 uM
[2] = test system: Plasmodium berghei (Pb-Luc) exoerythrocytic-stage parasites; test: microbe, parasite or virus in culture; details: for IC50: read-out: PbLuc IC50, dose response, 1/3 dilutions, max conc. 10 or 50 uM, unit inferred
[3] = test system: Plasmodium cynomolgi exoerythrocytic-stage small (hypnozoites) and large (liver stage schizonts) parasites; test: P. cynomolgi liver assay in primary hepatocytes; details: Plasmodium cynomolgi, Hepatocyte
[4] = target: QuantiLum Recombinant Luciferase (Photinus pyralis, UniProt P08659); test: Bioluminescence quantification of compound luciferase inhibition
HepG2-A16-CD81EGFP cells [5] = test system: HepG2-A16-CD81EGFP cells
HepG2-A16-CD81EGFP cells [6] = test: cells; details: Homo sapiens, HepG2, read-out: % inhibition
HepG2-A16-CD81EGFP cells [7] = test: cells; details: Homo sapiens, HepG2, read-out: % inhibition; remark: listed apart in the source
[8] = HepG2, read-out: HepG2 Tox% @ 50 uM rep1
[9] = HepG2, read-out: HepG2 Tox% @ 50 uM rep2
[10] = read-out: Inhibition% @ 50 uM rep1
[11] = read-out: Inhibition% @ 50 uM rep2
[12] = read-out: % inhibition normalized to untreated control, Large
[13] = read-out: % inhibition normalized to untreated control, Small
[14] = read-out: PbLuc max inhibition (%) @ 50 uM

Sequence of QuantiLum Recombinant Luciferase (P08659 whole entry): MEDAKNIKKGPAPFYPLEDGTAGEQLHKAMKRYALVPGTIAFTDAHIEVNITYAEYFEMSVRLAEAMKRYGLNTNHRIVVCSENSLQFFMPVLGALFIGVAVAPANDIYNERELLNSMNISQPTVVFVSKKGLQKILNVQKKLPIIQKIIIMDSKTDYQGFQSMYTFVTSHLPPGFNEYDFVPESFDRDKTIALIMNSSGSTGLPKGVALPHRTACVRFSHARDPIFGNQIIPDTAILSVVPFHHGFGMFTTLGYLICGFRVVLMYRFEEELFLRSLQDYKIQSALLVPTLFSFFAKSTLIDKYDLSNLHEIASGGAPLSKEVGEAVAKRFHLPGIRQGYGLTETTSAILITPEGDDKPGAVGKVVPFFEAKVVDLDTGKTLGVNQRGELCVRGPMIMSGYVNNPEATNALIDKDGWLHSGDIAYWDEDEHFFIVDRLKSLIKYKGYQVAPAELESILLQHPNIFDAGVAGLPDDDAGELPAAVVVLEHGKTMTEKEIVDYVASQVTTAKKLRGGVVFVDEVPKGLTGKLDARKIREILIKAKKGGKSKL

SMILES	inhibition at 50 µM [2, 10] [%]	inhibition at 50 µM [2, 11] [%]	HepG2 Tox% @ 50 uM rep1 (HepG2-A16-CD81EGFP cells [5]; human, 50 uM) [%]	inhibition at 50 µM (HepG2-A16-CD81EGFP cells [6]) [%]	inhibition at 50 µM (HepG2-A16-CD81EGFP cells [7]) [%]	HepG2 Tox% @ 50 uM rep2 (HepG2-A16-CD81EGFP cells [5]; human, 50 uM) [%]	also measured
COc1ccccc1CNC(=O)CCn1c(=O)[nH]c2ccsc2c1=O [MMV019066]	94	95	–	–	–	–	cytotoxicity at 50 µM (HepG2-A16-CD81EGFP cells [1]; [8]): -14%; cytotoxicity at 50 µM (HepG2-A16-CD81EGFP cells [1]; [9]): -5.32%; IC50 (HepG2-A16-CD81EGFP cells [1]): > 10000 nM; inhibition at 10 µM (HepG2-A16-CD81EGFP cells [1]; HepG2, read-out: Tox max inhibition (%) @ 10 uM): -2.17%; IC50 [2]: 56.1 nM; inhibition at 10 µM ([2]; read-out: PbLuc max inhibition (%) @ 10 uM): 104%; inhibition at 0.1 µM [3, 12]: 3%; inhibition at 1 µM [3, 12]: -2%; inhibition at 10 µM [3, 12]: 5%; inhibition at 0.1 µM [3, 13]: 10%; inhibition at 1 µM [3, 13]: 11%; inhibition at 10 µM [3, 13]: 3%; IC50 [4]: > 20000 nM; Emax ([4]; read-out: LucInhib max inhibition): 21%
CCOC(=O)c1c(NC(=O)c2ccccc2)sc2c(O)c(CN(CC)CC)ccc12 [MMV665831]	96	70	27	26.5	34.3	–	–
O=C(Nc1ccc(-c2nc3cc(NC(=O)c4ccc(Cl)cc4)ccc3[nH]2)cc1)c1ccc(Cl)cc1 [MMV006962]	103	103	–	–	–	–	cytotoxicity at 50 µM (HepG2-A16-CD81EGFP cells [1]; [8]): 96%; IC50 (HepG2-A16-CD81EGFP cells [1]): 9200 nM; inhibition at 50 µM (HepG2-A16-CD81EGFP cells [1]): 99%; IC50 [2]: 501 nM; inhibition at 50 µM [2, 14]: 99%; inhibition at 0.1 µM [3, 12]: 34%; inhibition at 1 µM [3, 12]: 25%; inhibition at 10 µM [3, 12]: 10%; inhibition at 0.1 µM [3, 13]: -8%; inhibition at 1 µM [3, 13]: 11%; inhibition at 10 µM [3, 13]: 17%
CN(C)c1ccc(-c2nc3cc(N)ccc3[nH]2)cc1 [MMV666102]	97	94	29	29.4	32.6	–	–
CCCN(CCC)CCCNC(=O)c1cc2c(-c3ccc(OC)c(OC)c3)nn(C)c2s1 [MMV000561]	104	106	–	98.1	100	100	–
CN1CCN(c2c3c(c(C#N)c4nc5ccccc5n24)CCC3)CC1 [MMV008127]	28	-16	–	-6.02	-9.23	-9	–
COc1cc2cc(C(=O)Nc3ccccc3)c(N)nc2cc1OC [MMV006767]	73	39	–	18.2	10.2	10	–
COc1ccc(-c2nonc2NC(=O)c2cccc(C)c2)cc1OC [MMV665890]	7	13	–	-1.53	-2.92	-3	–
CCOC(=O)C1CCN(C(=O)CN2C(=O)c3ccccc3C2c2c[nH]c3ccccc23)CC1 (stereo not shown) [MMV011576]	41	58	-19	-18.5	-12.2	-12	–
CCN1CCN(c2cc(C)c3cc(NC(=O)c4ccc(OC)c(OC)c4)ccc3n2)CC1 [MMV019074]	104	104	–	98.4	100	100	–
O=C(Nc1cccc(C(F)(F)F)c1)c1cc(Cl)ccc1O [MMV665807]	103	103	–	–	–	–	cytotoxicity at 50 µM (HepG2-A16-CD81EGFP cells [1]; [8]): 98%; cytotoxicity at 50 µM (HepG2-A16-CD81EGFP cells [1]; [9]): 99%; IC50 (HepG2-A16-CD81EGFP cells [1]): 910 nM; inhibition at 50 µM (HepG2-A16-CD81EGFP cells [1]): 94%; IC50 [2]: 210 nM; inhibition at 50 µM [2, 14]: 101%; inhibition at 0.1 µM [3, 12]: 6%; inhibition at 1 µM [3, 12]: 10%; inhibition at 10 µM [3, 12]: 12%; inhibition at 0.1 µM [3, 13]: 17%; inhibition at 1 µM [3, 13]: 34%; inhibition at 10 µM [3, 13]: 24%
Cc1cc(N2CCN(C3CCCC3)CC2)n2c(nc3ccccc32)c1C#N [MMV006706]	48	24	-10	-9.81	-11.2	-11	–
COc1ccc(C(=O)Nc2ccc(Cl)cc2C(=O)Nc2ccncc2)cc1 [MMV665799]	67	39	-8	-8.2	-10.4	-10	–
CN(C)CCCNc1c2ccccc2nc2ccccc12 [MMV000448]	103	106	–	96.8	99.5	100	–
CCCc1cc(O)c2c3c(c(=O)oc2c1)CN(C)CC3 [MMV665841]	83	44	–	10.6	26.3	–	HepG2 Tox% @ 50 uM rep1 (HepG2-A16-CD81EGFP cells [5]; HepG2, 50 uM, replicate 1): 11%; HepG2 Tox% @ 50 uM rep2 (HepG2-A16-CD81EGFP cells [5]; HepG2, 50 uM, replicate 2): 26%
CCCN(CCC)CC(O)COc1ccccc1C(=O)Nc1ccccc1 (stereo not shown) [MMV006455]	84	75	-8	-8.15	7.57	–	–
